≈ marks a conversion by molar mass, not a printed value.
Columns and labels:
[1] = target: purified DHFR of strain 157/4696 of Staphylococcus aureus (Staphylococcus aureus, UniProt P13955); assay: biochemical
[2] = system: Staphylococcus aureus 101; assay: MIC against Staphylococcus aureus 101; format: cell-based; conditions: Table 2; Staphylococcus aureus 101, MRSA- and trimethoprim-resistant; clinical isolate; read-out: MIC Sa101
[3] = target: T1, purified DHFR of strain Sp1/1 of Streptococcus pneumoniae (Streptococcus pneumoniae serotype 4, UniProt Q54801); format: biochemical; conditions: Table 2; IC50 against purified DHFR of strain Sp1/1
T1 sequence (Q54801 1-168 I100L): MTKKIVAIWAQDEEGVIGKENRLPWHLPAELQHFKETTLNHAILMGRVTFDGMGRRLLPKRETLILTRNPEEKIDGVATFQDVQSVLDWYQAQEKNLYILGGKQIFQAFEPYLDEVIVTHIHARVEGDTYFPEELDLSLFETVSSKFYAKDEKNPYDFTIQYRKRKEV

[4] = system: Streptococcus pneumoniae 1/1; assay: MIC against Streptococcus pneumoniae 1/1; format: cell-based; conditions: Table 2; Streptococcus pneumoniae 1/1, trimethoprim- and penicillin-resistant, serotype 6; clinical isolate; read-out: MIC Sp1/1

Chain of purified DHFR of strain 157/4696 of Staphylococcus aureus (P13955 whole entry): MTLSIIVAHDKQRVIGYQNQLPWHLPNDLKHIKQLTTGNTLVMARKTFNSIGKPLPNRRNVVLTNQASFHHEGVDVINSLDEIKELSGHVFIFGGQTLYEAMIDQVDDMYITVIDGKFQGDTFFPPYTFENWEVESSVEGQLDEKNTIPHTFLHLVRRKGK

Compound: CCOc1cc(Cc2cnc(N)nc2N)cc(OS(=O)(=O)N(C)C2CC2)c1-c1ccc(N)c(C)c1 [Example 27-c, N-Cyclopropyl-N-methyl-sulphamic acid 4′-amino-4-(2,4-diamino-pyrimidin-5-ylmethyl)-6-ethoxy-3′-methyl-biphenyl-2-yl ester]
- IC50 [1]: 180 nM
- MIC [2]: 1 µg/mL (≈ 2.01 µM)
- IC50 [3]: 2.6 nM
- MIC [4]: 1 µg/mL (≈ 2.01 µM)
